Values quoted from earlier work as cited in patent publication US7049092B1 (priority 1999, dated 2006).

Molecular target: hormone-sensitive lipase
Settings: read-out: IC50 (concentration producing 50% inhibition)

Compound: [Cl][Hg][Cl] [HgCl2 (mercuric chloride), mercuric chloride]
- IC50: 11 µM
